The assay relates to 843126-344-R-J1-PDC complex spheroid viability. Nature of the assay: Anticancer human tumor 843126-344-R-J1-PDC patient-derived melanoma cell line growth inhibition [POLQ]. Conditions: for viability, T/C: stronger effect = lower value. In short, it runs like this: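 Growth inhibition in 3D: complex spheroids (tumor PDC, HUVEC, MSC) treated with POLQ inhibitor combinations; where Cmax unknown, highest tested concentration 10 microM, except SN-38 at 1 microM.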

The mark [1] stands for this setting: curve of first compound, second compound 0.0316 µM.
The mark [2] stands for this setting: curve of first compound, second compound 0.1 µM.
Where [3] appears, read: curve of first compound, second compound 0.316 µM.
The mark [4] stands for this setting: curve of first compound, second compound 1 µM.
The mark [5] stands for this setting: curve of first compound, second compound 3.16 µM.
Setting [6] is: curve of first compound, second compound 10 µM.
Where [7] appears, read: second compound 0.0316 µM, first compound 0.0316 µM.
[8] abbreviates: second compound 0.0316 µM, first compound 0.1 µM.
Setting [9] is: second compound 0.0316 µM, first compound 0.316 µM.
Where [10] appears, read: second compound 0.0316 µM, first compound 1 µM.
Where [11] appears, read: second compound 0.0316 µM, first compound 3.16 µM.
Setting [12] is: second compound 0.0316 µM, first compound 10 µM.
The mark [13] stands for this setting: second compound 0.1 µM, first compound 0.0316 µM.
[14] abbreviates: second compound 0.1 µM, first compound 0.1 µM.
[15] abbreviates: second compound 0.1 µM, first compound 0.316 µM.
The mark [16] stands for this setting: second compound 0.1 µM, first compound 1 µM.
Where [17] appears, read: second compound 0.1 µM, first compound 3.16 µM.
[18] abbreviates: second compound 0.1 µM, first compound 10 µM.
The mark [19] stands for this setting: second compound 0.316 µM, first compound 0.0316 µM.
Where [20] appears, read: second compound 0.316 µM, first compound 0.1 µM.
The mark [21] stands for this setting: second compound 0.316 µM, first compound 0.316 µM.
The mark [22] stands for this setting: second compound 0.316 µM, first compound 1 µM.
Where [23] appears, read: second compound 0.316 µM, first compound 3.16 µM.
[24] abbreviates: second compound 0.316 µM, first compound 10 µM.
Where [25] appears, read: second compound 1 µM, first compound 0.0316 µM.
Setting [26] is: second compound 1 µM, first compound 0.1 µM.
Setting [27] is: second compound 1 µM, first compound 0.316 µM.
[28] abbreviates: second compound 1 µM, first compound 1 µM.
Setting [29] is: second compound 1 µM, first compound 3.16 µM.
Where [30] appears, read: second compound 1 µM, first compound 10 µM.
[31] abbreviates: second compound 3.16 µM, first compound 0.0316 µM.
[32] abbreviates: second compound 3.16 µM, first compound 0.1 µM.
Where [33] appears, read: second compound 3.16 µM, first compound 0.316 µM.
The mark [34] stands for this setting: second compound 3.16 µM, first compound 1 µM.
Setting [35] is: second compound 3.16 µM, first compound 3.16 µM.
[36] abbreviates: second compound 3.16 µM, first compound 10 µM.
Where [37] appears, read: second compound 10 µM, first compound 0.0316 µM.
Setting [38] is: second compound 10 µM, first compound 0.1 µM.
The mark [39] stands for this setting: second compound 10 µM, first compound 0.316 µM.
The mark [40] stands for this setting: second compound 10 µM, first compound 1 µM.
Where [41] appears, read: second compound 10 µM, first compound 3.16 µM.
[42] abbreviates: second compound 10 µM, first compound 10 µM.

Several values for one entry are separate records, joined by “and”; a condition that tells them apart may be missing. Identical values can stand only once.
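Wherever viability, T/C is given: spheroids exposed to drugs for seven days before readout.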

For `CC(C)n1c(=O)n(C)c2cnc3cc(F)c(-c4ccc(OCCCN5CCCCC5)nc4)cc3c21` + Nc1ccc(C#CCN(C(=O)Cc2ncc(C(F)(F)F)cc2C(F)(F)F)c2ccc(F)cc2)nn1, the IC50 under setting [1] is more than 10 µM; the 50% inhibitory concentration (IC50) under setting [2] was more than 10 µM; the half-inhibitory concentration (IC50) under setting [3] is more than 10 µM; the IC50 under setting [4] is more than 10 µM; the IC50 under setting [5] was more than 10 µM; the IC50 under setting [6] is more than 10 µM. Further, the viability, T/C was 91.9% under setting [7]; 74% under setting [8]; 86.2% under setting [9]; 92.6% under setting [10]; 81.5% under setting [11]; 77.8% under setting [12]. Besides, the viability, T/C was 93.8% under setting [13]; 92.4% under setting [14]; 77.7% under setting [15]; 84.6% under setting [16]; 90.7% under setting [17]; 70.6% under setting [18]. Also, the viability, T/C is 80.8% under setting [19]; 95.4% under setting [20]; 94.5% under setting [21]; 85.7% under setting [22]; 89.2% under setting [23]; 71.6% under setting [24]. The viability, T/C is, setting by setting: under setting [25], 89.3%; under setting [26], 85.7%; under setting [27], 90.9%; under setting [28], 93.5%; under setting [29], 81%; under setting [30], 64.1%. Besides, the viability, T/C is, setting by setting: under setting [31], 76.5%; under setting [32], 84%; under setting [33], 88.9%; under setting [34], 82.8%; under setting [35], 81.8%; under setting [36], 81%. The viability, T/C runs as follows: under setting [37], 85.3%; under setting [38], 73.2%; under setting [39], 86.8%; under setting [40], 91.4%; under setting [41], 78.3%; under setting [42], 67.8%.

`COc1cc2cc(C(=O)CCC(=O)O)sc2cc1OC`: the viability, T/C reads like this: (compound 0.0316 µM) 87.3% and 78.3% and 95.9%; (compound 0.1 µM) 84.1% and 94.8% and 93.8%; (compound 0.316 µM) 94.1% and 97.4% and 110%; (compound 1 µM) 89.5% and 93.5% and 88.7%; (compound 3.16 µM) 86.9% and 84.8% and 98.1%; (compound 10 µM) 112% and 90.1% and 96.6%. Further, under “curve of compound”, the IC50 was more than 10 µM.

As for `CC1COCCN1c1cc(C2(O)CC3CCC(C2)O3)c2cnn(-c3ccn[nH]3)c2n1` (stereo unspecified), the viability, T/C is 93.2% and 82.1% and 81.5% (compound 0.0316 µM); 66.9% and 57.4% and 68.6% (compound 0.1 µM); 63.7% and 52.7% and 51.1% (compound 0.316 µM); 38% and 44.3% and 35.9% (compound 1 µM); 29.8% and 23.2% and 26% (compound 3.16 µM); 20% and 15.3% and 18.9% (compound 10 µM). Moreover, the IC50 (curve of compound) was 0.527 µM and 0.355 µM and 0.353 µM.

Regarding `COc1cccc2c1C(=O)c1c(O)c3c(c(O)c1C2=O)CC(O)(C(=O)CO)CC3OC1CC(N)C(O)C(C)O1` (stereo unspecified) + COC1C(OC(N)=O)C(O)C(Oc2ccc3c(O)c(NC(=O)c4ccc(O)c(CC=C(C)C)c4)c(=O)oc3c2C)OC1(C)C, the IC50 under setting [1] was found to be 0.332 µM; the IC50 under setting [2] stood at 0.32 µM; the IC50 under setting [3] was 0.295 µM; the IC50 under setting [4] came to 0.328 µM; the half-maximal inhibitory concentration (IC50) under setting [5] came out at 0.404 µM; the IC50 under setting [6] worked out at 0.303 µM. For the same molecule, the viability, T/C is 80% under setting [7]; 81.3% under setting [8]; 50.5% under setting [9]; 14.6% under setting [10]; 4.71% under setting [11]; 3.86% under setting [12]. Besides, the viability, T/C runs as follows: under setting [13], 84%; under setting [14], 85%; under setting [15], 49.2%; under setting [16], 13.5%; under setting [17], 3.97%; under setting [18], 3.88%. Moreover, the viability, T/C runs as follows: under setting [19], 103%; under setting [20], 71.8%; under setting [21], 58%; under setting [22], 14.1%; under setting [23], 4.21%; under setting [24], 4.82%. Further, the viability, T/C under setting [25] was 98.3%; the viability, T/C under setting [26] is 77.2%; the viability, T/C under setting [27] was 56.2%; the viability, T/C under setting [28] was 13%; the viability, T/C under setting [29] was 4.55%; the viability, T/C under setting [30] is 3.9%. Further, the viability, T/C by setting is: under setting [31], 87.6%; under setting [32], 77%; under setting [33], 60.2%; under setting [34], 16%; under setting [35], 5.73%; under setting [36], 4.31%. Also, the viability, T/C is, setting by setting: under setting [37], 88.6%; under setting [38], 77.6%; under setting [39], 49.9%; under setting [40], 15%; under setting [41], 4.64%; under setting [42], 3.44%.

As for `CC(=O)O[C@H]1C(=O)[C@@]2(C)[C@H]([C@H](OC(=O)c3ccccc3)[C@]3(O)C[C@H](OC(=O)[C@H](O)[C@@H](NC(=O)c4ccccc4)c4ccccc4)C(C)=C1C3(C)C)[C@]1(OC(C)=O)CO[C@@H]1C[C@@H]2O`, the viability, T/C is 65.3% and 60.5% (compound 0.00949 µM); 54.6% and 53.3% (compound 0.03 µM); 64.2% and 54.8% (compound 0.0949 µM); 75.2% and 57% (compound 0.3 µM); 74.7% and 55.3% (compound 0.949 µM); 76% and 66.8% (compound 3 µM). For the same molecule, the IC50 (curve of compound) is more than 3 µM.

Consider `COc1cccc(OCCCN)c1-c1cc(Nc2cnc(C#N)cn2)n[nH]1`, for which the viability, T/C was 97.4% and 92.9% and 79.1% (compound 0.00316 µM); 79.3% and 86.4% and 75.8% (compound 0.01 µM); 59% and 60.4% and 62.1% (compound 0.0316 µM); 49.5% and 47.9% and 49.9% (compound 0.1 µM); 47.6% and 47.8% and 44.3% (compound 0.316 µM); 35.3% and 32.9% and 35.2% (compound 1 µM). Under “curve of compound”, the IC50 is 0.109 µM and 0.0864 µM and 0.114 µM.

`Nc1ccn(C2OC(CO)C(O)C2(F)F)c(=O)n1` (stereo unspecified): the viability, T/C by setting is: (compound 0.0316 µM) 46.2% and 42.9% and 42.2%; (compound 0.1 µM) 38.7% and 36.8% (2×); (compound 0.316 µM) 47.1% and 45.8% and 33.8%; (compound 1 µM) 43% and 35% and 37.6%; (compound 3.16 µM) 41.3% and 39.6% and 33.5%; (compound 10 µM) 38.2% and 37.7% and 35.1%. The concentration for half-maximal inhibition (IC50) (curve of compound) was less than 0.0316 µM.

As for `O=C(Nc1ccc(O)c(NS(=O)(=O)c2ccc(F)cc2)c1)c1ccc(-c2ccccc2)cc1`, the viability, T/C is 105% and 76% and 99.6% (compound 0.0316 µM); 95.6% and 92.3% and 104% (compound 0.1 µM); 105% and 88.3% and 87.2% (compound 0.316 µM); 99.5% and 85.9% and 100% (compound 1 µM); 87.3% and 85.3% and 95.2% (compound 3.16 µM); 74.3% (2×) and 75.3% (compound 10 µM). The IC50 (curve of compound) is more than 10 µM.

For the origin of these results see PubChem BioAssay AID1963837 (Molecular Pharmacology Branch, DTP, NCI, 2024).
